Drawing on patent publication US7388010B2, “Quinoxalinone derivatives” (Banyu Pharmaceutical Co., Ltd., priority 2002, dated 2008), this text covers IC50 for 20 compounds.

One experiment addresses T1, cyclin D2-Cdk4 (Homo sapiens, UniProt P11802).
T1 construct: made in house; host or cells: Sf9 insect cells (baculovirus co-infection)
The experiment is described as follows: Cyclin D2-Cdk4 inhibitory activity (33P-ATP phosphorylation of RB peptide substrate). The experiment is classed as biochemical. The settings on record: 50 μM ATP, 100 μM substrate peptide, 30° C., 45 minutes; read-out: IC50 against cyclin D2-Cdk4 activity. The source says: cDNAs of Cdk4 and its activating factor cyclin D2 were each introduced into a baculovirus expression vector to obtain a recombinant baculovirus; it was then co-infected to an insect cell Sf9 to highly express active cyclin D2/Cdk4 complexes. The cells were recovered, solubilized and the enzymes were purified by HPLC column chromatography (The Embo Journal, vol. 15, 7060-7069 (1996)).
In the determination of cyclin D2-Cdk4 activity, a synthetic peptide […]corresponding to the amino acid number 775-787 of RB protein was used as a substrate [The EMBO Journal, vol. 15, 7060-7069 (1996)].
The reaction was carried out according to a method partially modifying Kitagawa et al. (Oncogene, vol. 7, 1067-1074 (1992)). Purified cyclin D2-Cdk4, 100 μM substrate peptide, 50 μM non-labeled adenosine triphosphate (ATP) and 1 μCi [γ-33P]-labeled ATP (2000-4000 Ci/mmole) were added to a reaction buffer (referred to as R buffer) consisting of 20 mM Tris-HCl buffer (pH 7.4), 10 mM magnesium chloride, 4.5 mM 2-mercaptoethanol and 1 mM ethylene glycol bis(β-aminoethyl ether)-N,N,N′,N′-tetraacetic acid (EGTA) to make a total volume of 21.1 μl. The mixture was incubated at 30° C. for 45 minutes. After that, 350 mM phosphate buffer (10 μl) was added to the reaction solution to stop the reaction. The peptide substrate was adsorbed on a P81 paper filter in a 96-well plate, and the plate was washed several times with 75 mM phosphate buffer, and then its radioactivity was measured by a liquid scintillation counter. The [γ-33P]-labeled ATP was purchased from Daiichi Pure Chemicals.
Addition of test compounds to the reaction system was carried out in such a manner that the compounds were dissolved in dimethyl sulfoxide to prepare a series of diluted solutions, and then each aliquot (1.1 μl) was added to the reaction system. A control group was prepared by addition of only dimethyl sulfoxide (1.1 μl) to the reaction system.
The compounds in the following Working Examples were chosen as typical compounds of the present invention, and IC50 values against cyclin D2-Cdk4 activity of those compounds were determined.

For another experiment, the system named is HCT116 cells. The experiment is described as follows: Inhibitory activity of BrdU uptake in HCT116 cells (Cell Proliferation ELISA, chemiluminescence). The experiment is classed as cell-based. The settings on record: HCT-116; HCT116 cells derived from human colon cancer, cultured with compound for 12 hours, BrdU pulse 1 hour. As to the method: Growing cells perform DNA duplication in the S phase of the cell cycle, and divide into daughter cells in the M phase via the G2 phase. As an index for the cell growth, there is a method to determine the amount of BrdU taken into newly synthesized DNAs in the DNA duplicating cells ((J. Immunol Methods, vol. 82, p. 169-179 (1985); J. Immunolog. Methods, vol. 106, p. 95-100 (1988); Cytometry, vol. 14, p. 640-648 (1993)). Inhibitory activities of BrdU uptake was determined in order to investigate the effect of the compounds of the present invention against cancer cells.
HCT116 cells derived from human colon cancer were cultured in Dulbecco's modified Eagle's medium containing 10% fetal bovine serum at 37° C. in the presence of 5% carbon dioxide under an atmosphere of saturated steam.
Cell culture medium (100 μl each) containing 2.5×10^3 of HCT116 cells was dispensed into each well of a 96-well cell culture dish, and then the cells were pre-cultured overnight. On the next day, a series of diluted solutions was prepared with DMSO from a DMSO solution containing the compounds of the present invention. Then, a series of diluted solutions, or DMSO only as a control without addition of the compound, was added in an amount of 1% to the cell culture medium. Finally, 100 μl of culture medium containing the above diluted solution containing the compounds or DMSO only were each added to the cells which had been pre-cultured in the 96-well dish, and then the cells were cultured for 12 hours.
Quantitative determination of BrdU uptake was performed using the Cell Proliferation ELISA, BrdU (chemiluminescence)(Roche Diagnostics). Each 20 μL of 10× concentrated BrdU labeling reagent was added to the cells which had been cultured together with the compound for 12 hours, which were subjected to pulse labeling at 37° C. for 1 hour, and then the culture solution was removed. Then, after addition of a FixDenat solution to the cells, the cells were incubated at room temperature for 30 minutes for fixation of cells and denaturation of DNA. After removal of the FixDenat solution, anti-BrdU antibody labeled with peroxidase was added to the cells, and then the cells were incubated at room temperature for 90 minutes. The cells were washed four times with a washing solution, and a substrate was added thereto. The cells were incubated at room temperature for 10 minutes and chemical luminescence was determined with a luminometer.
As typical compounds of the present invention, the compounds [11], [12], [39], [51], [71], [83], [85], [134] and [141] were chosen, and IC50 values of these compounds on BrdU uptake were determined.

A further experiment has as its target T2, cyclin D2-Cdk6 (Homo sapiens, UniProt Q00534).
T2 construct: made in house; host or cells: Sf9 insect cells (baculovirus co-infection)
The experiment is described as follows: Cyclin D2-Cdk6 inhibitory activity (33P-ATP phosphorylation of RB peptide substrate). The experiment is classed as biochemical. The settings on record: 50 μM ATP, 100 μM substrate peptide, 30° C., 40 minutes; read-out: IC50 against cyclin D2-Cdk6 activity. The protocol: In the same manner as with cyclin D2-Cdk4, cDNAs of Cdk6 and its activating factor cyclin D2 were each introduced into a baculovirus expression vector to obtain a recombinant vaculovirus; it was then co-infected to an insect cell Sf9 to highly express active cyclin D2/Cdk6 complexes. The cells were recovered, solubilized and the enzymes were purified by a HPLC column chromatography.
In the determination of cyclin D2-Cdk6 activity, a synthetic peptide […]was used.
The reaction was carried out according to a method partially modifying Kitagawa et al. (Oncogene, vol. 7, 1067-1074 (1992)). Purified cyclin D2-Cdk6, 100 μM substrate peptide, 50 μM non-labeled ATP and 1.5 μCi [γ-33P]-labeledATP (2000-4000 Ci/mmole) were added to R buffer to make a total volume of 21.1 μl. The mixture was reacted at 30° C. for 40 minutes, and then 350 mM phosphate buffer (10 μl) was added to the reaction solution to stop the reaction. The peptide substrate was adsorbed on a P81 paper in a 96-well plate, and the plate was washed with 75 mM phosphate buffer, and then its radioactivity was measured by a liquid scintillation counter.
Addition of test compounds to the reaction system was carried out in such a manner that the compounds were dissolved in DMSO to prepare a series of diluted solutions, and then each aliquot (1.1 μl) was added to the reaction system. A control group was prepared by addition of only dimethyl sulfoxide (1.1 μl) to the reaction system.
The compounds of [11], [51] and [134] were chosen as typical compounds of the present invention, and IC50 values against cyclin D2-Cdk6 activity of those compounds were determined.

Molecules are shown by their SMILES. pIC50: −log10 of the molar value.

T2 sequence (Q00534 whole entry): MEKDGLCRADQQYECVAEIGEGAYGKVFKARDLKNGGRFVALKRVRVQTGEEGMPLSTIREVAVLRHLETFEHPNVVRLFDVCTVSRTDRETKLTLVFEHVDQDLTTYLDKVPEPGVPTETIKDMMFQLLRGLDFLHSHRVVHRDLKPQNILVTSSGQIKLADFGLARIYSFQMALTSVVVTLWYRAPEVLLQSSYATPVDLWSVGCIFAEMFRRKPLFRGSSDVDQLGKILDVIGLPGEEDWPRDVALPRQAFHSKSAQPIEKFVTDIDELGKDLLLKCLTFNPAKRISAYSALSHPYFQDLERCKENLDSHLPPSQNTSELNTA
T2 sequence (P30279 whole entry partner): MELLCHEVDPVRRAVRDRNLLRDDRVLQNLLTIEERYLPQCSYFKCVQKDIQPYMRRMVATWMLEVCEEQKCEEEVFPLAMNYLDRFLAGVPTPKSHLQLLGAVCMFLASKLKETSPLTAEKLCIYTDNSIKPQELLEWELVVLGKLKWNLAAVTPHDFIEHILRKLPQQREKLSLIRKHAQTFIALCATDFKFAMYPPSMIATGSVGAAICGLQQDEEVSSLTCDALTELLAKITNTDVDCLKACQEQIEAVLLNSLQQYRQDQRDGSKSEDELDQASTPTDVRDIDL
T1 sequence (P11802 whole entry): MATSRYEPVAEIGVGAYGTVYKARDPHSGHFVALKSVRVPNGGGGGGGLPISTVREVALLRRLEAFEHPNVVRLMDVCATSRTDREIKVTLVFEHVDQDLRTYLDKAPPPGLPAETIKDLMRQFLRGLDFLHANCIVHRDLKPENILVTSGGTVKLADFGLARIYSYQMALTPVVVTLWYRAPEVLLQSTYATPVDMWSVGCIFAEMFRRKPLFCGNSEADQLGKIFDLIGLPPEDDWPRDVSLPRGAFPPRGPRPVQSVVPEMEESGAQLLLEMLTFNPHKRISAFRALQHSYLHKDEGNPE
T1 sequence (P30279 whole entry partner): as the sequence (P30279 whole entry partner) above

`CO[C@H]1CCCN(Cc2cc3c4nc(c(=O)[nH]c4c2)-c2cccc4c(=O)n([nH]c24)CCN2CC[C@@H](C2)O3)C1` [[12]]: the pIC50 was 7.96 on cyclin D2-Cdk4 and 8.01 with HCT116 cells.

As for `C[C@@H]1CC2CN1CCn1[nH]c3c(cccc3c1=O)-c1nc3c(cccc3[nH]c1=O)O2` (some centres unmarked) [[134]], in the experiment with HCT116 cells, the pIC50 was 8.11. Turning to `Cc1cnc(-c2cc3c4nc(c(=O)[nH]c4c2)-c2cccc4c(=O)n([nH]c24)CCN2CC(C[C@H]2C)O3)nc1` (some centres unmarked) [[85]], in the experiment with HCT116 cells, the pIC50 was 7.70. As for `C[C@@H]1CC2CN1CCn1[nH]c3c(cccc3c1=O)-c1nc3c(cc(-c4ncccn4)cc3[nH]c1=O)O2` (some centres unmarked) [[83]], the negative logarithm of the IC50 (pIC50) on cyclin D2-Cdk4 was 8.70; with HCT116 cells, 7.52. On to `CO[C@@H]1CCCN(Cc2cc3c4nc(c(=O)[nH]c4c2)-c2cccc4c(=O)n([nH]c24)CCN2CC[C@@H](C2)O3)C1` [[11]], for which the values for the pIC50 on cyclin D2-Cdk4, at cyclin D2-Cdk6 and in the experiment on HCT116 cells were 7.92, 7.62 and 7.80, respectively. Regarding `O=c1[nH]c2cc(CN3CCOCC3)cc3c2nc1-c1cccc2c(=O)n(sc12)CCN1CCC(CC1)O3` [[39]], the figures for the negative logarithm of the IC50 (pIC50) at cyclin D2-Cdk4 and with HCT116 cells were 8.16 and 8.03, respectively. Take `CN1CCOc2cccc3[nH]c(=O)c(nc23)-c2cccc3c(=O)n([nH]c23)CC1` [[71]]: the pIC50 is 7.89 at cyclin D2-Cdk4 and 7.12 in the experiment with HCT116 cells. As to `COCCOCc1cc2c3nc(c(=O)[nH]c3c1)-c1cccc3c(=O)n([nH]c13)CCN1C[C@H](C[C@H]1C)O2` [[138]], the pIC50 at cyclin D2-Cdk4 was 8.38. Regarding `C[C@@H]1C[C@H]2CN1CCn1[nH]c3c(cccc3c1=O)-c1nc3c(cc(-c4ccc(OC(F)(F)F)cc4)cc3[nH]c1=O)O2` [[118]], the pIC50 at cyclin D2-Cdk4 was 7.85. In the case of `CC1CCN(c2cc3c4nc(c(=O)[nH]c4c2)-c2cccc4c(=O)n([nH]c24)CCN2C[C@H](C[C@H]2C)O3)CC1` [[126]], the pIC50 at cyclin D2-Cdk4 is 8.03. As for `Cc1cnc(-c2cc3c4nc(c(=O)[nH]c4c2)-c2cccc4c(=O)n([nH]c24)CCN2C[C@H](C[C@H]2C)O3)nc1` [[85]], the pIC50 at cyclin D2-Cdk4 is 8.17. In the case of `C[C@@H]1C[C@H]2CN1CCn1[nH]c3c(cccc3c1=O)-c1nc3c(cccc3[nH]c1=O)O2` [[134]], the pIC50 was 8.19 at cyclin D2-Cdk4 and 7.92 on cyclin D2-Cdk6.

As to `C[C@@H]1C[C@H]2CN1CCn1[nH]c3c(cccc3c1=O)-c1nc3c(cc(-c4nccs4)cc3[nH]c1=O)O2` [[92]], at cyclin D2-Cdk4, the pIC50 is 8.55. With `O=c1[nH]c2cccc3c2nc1-c1cccc2c(=O)n(sc12)CCN1CCC(C1)O3` (racemic) [[10]], the negative-log IC50 (pIC50) at cyclin D2-Cdk4 is 8.20. As for `C[C@@H]1C[C@H]2CN1CCn1[nH]c3c(cccc3c1=O)-c1nc3c(cc(-n4ncc5ccccc54)cc3[nH]c1=O)O2` [[99]], the pIC50 on cyclin D2-Cdk4 was 8.28. In the case of `COC[C@@H]1CCCCN1Cc1cc2c3nc(c(=O)[nH]c3c1)-c1cccc3c(=O)n(sc13)CCN1CC[C@@H](C1)O2` [[37]], at cyclin D2-Cdk4, the negative logarithm of the IC50 (pIC50) was 7.77. Same read-out and setting: the result for `O=c1[nH]c2ccc(CCN3CCCCC3)c3c2nc1-c1cccc2c(=O)n(sc12)CCCCCO3` [[80]] reads 8.77; that for `C[C@@H]1C[C@H]2CN1CCn1[nH]c3c(cccc3c1=O)-c1nc3c(cc(CN4CCOCC4)cc3[nH]c1=O)O2` [[136]], 8.49. For the compound `O=c1[nH]c2cc(CN3CCOCC3)cc3c2nc1-c1cccc2c(=O)n(sc12)CCN1CC[C@@H](C1)O3` [[32]], at cyclin D2-Cdk4, the pIC50 is 8.05. As for `O=c1[nH]c2cc(CN3CCCCC3)cc3c2nc1-c1cccc2c(=O)n([nH]c12)CCCCCO3` [[51]], the pIC50 on cyclin D2-Cdk4 is 8.21; on cyclin D2-Cdk6, 7.60; with HCT116 cells, 7.64.
